Tested on: E. coli BT3/pACYCSP+pTVCSF strain
Assay: Growth of E. coli BT3/pACYCSP+pTVCSF (variant cucumber ferrochelatase) with herbicidal compound
Format: cell-based, Escherichia coli
Conditions: 18 hours culture, Table 13
From the text: According to the description of Gibson, L. C. D. et al., Proc. Natl. Acad. Sci. USA, 92; p 1941 (1995), the DNA fragment containing bchH gene prepared in Example 1 was digested with the restriction enzymes NdeI and BglII. The resultant DNA fragment was inserted between NdeI restriction site and BamHI restriction site of expression vector pET11a (manufactured by Stratagene) to obtain plasmid pETBCH (FIG. 1). This plasmid pETBCH was introduced into E. coli BL21(DE3) strain competent cells (manufactured by Stratagene) according to the manual attached to the competent cells to obtain E. coli BL21(DE3)/pETBCH strain. The strain was inoculated into 1.5 ml LB liquid culture medium (1% tryptone, 0.5% yeast extract, 0.5% NaCl) containing 100 μg/ml ampicillin in a tube (14×10 mm), and the tube was covered with aluminum foil (hereinafter referred to as dark conditions), cultured with shaking at 37° C. under light of fluorescent lamp (about 8000 lux). When the absorbance at 600 nm of the liquid culture medium became about 0.6, isopropyl β-D-thiogalactopyranoside (IPTG) was added to the liquid culture medium so that the final concentration was 0.4 mM, and the culture was continued for about additional 20 hours. […] In contrast to this, when E. coli BL21(DE3)/pETBCH strain was cultured according to the same manner (with IPTG) except that the tube was not covered with aluminum foil (hereinafter referred to as light conditions), E. coli grew and turned red as above.
PCR was carried out by using cucumber ferrochelatase cDNA clone isolated by the method described in Miyamoto, K. et al. Plant Physiol., 105; p 769 (1994) as a template, an oligonucleotide composed of the nucleotide sequence of SEQ ID NO: 21 and an oligonucleotide composed of the nucleotide sequence of SEQ ID NO: 22 as primers to amplify the DNA fragment encoding cucumber ferrochelatase whose signal sequence had been deleted (hereinafter referred to as the variant cucumber ferrochelatase). […]
These E. coli strains were inoculated into YPT medium containing 10 or 1 ppm of the PPO inhibitory-type herbicidal compound represented by Structure 8, 100 μg/ml ampicillin, 15 μg/ml chloramphenicol, 10 μg/ml kanamycin, 10 μg/ml hemin and 50 μg/ml aminolevulinic acid, cultured under dark conditions or light conditions according to the same manner as in Example 2. Then, 18 hours after initiation of culture, the absorbance of liquid culture medium was measured at 600 nm. By taking the absorbance of the medium without the herbicidal compound as 1, the relative value of the absorbance of the medium containing the herbicidal compound was calculated.

Q: `C#CCOc1cc(N2C(=O)C3=C(CCCC3)C2=O)c(F)cc1Cl` [Structure 8] was tested. Which Relative absorbance (in the dark, 1 ppm) did it give?
A: 0.92

Q: And the Relative absorbance (in the dark, 10 ppm)?
A: 0.89

Q: And the Relative absorbance (in the light, 1 ppm)?
A: 0.78

Q: What about the Relative absorbance (in the light, 10 ppm) of the same compound?
A: 0.73
